Data reported in US10934310B2, “Inhibitors of Bruton's tyrosine kinase and method of their use” (JANSSEN PHARMACEUTICA NV, priority 2015, dated 2021).

target: unphosphorylated-BTK kinase domain (UP-BTK), GST-tagged human BTK (389-659aa) (Homo sapiens (Human), UniProt Q06187); experiment: BTK Kinase Lanthascreen Binding Assay; conditions: compound, 50 nM Tracer 236, 2 nM anti-GST antibody, 60 minutes; pIC50 = negative log of the IC50 in molar
Procedure: BTK Kinase Lanthascreen Binding Assay:
A BTK kinase lanthascreen binding assay monitors compound binding to unphosphorylated-BTK kinase domain (UP-BTK), by competing with a fluorescent labeled tracer. […] Data were analyzed using Xlfit™ version 5.3 from ID Business Solutions (Guildford), Microsoft Excel add-in. pIC50 refers to the negative log of the IC50 in molar.

unphosphorylated-BTK kinase domain (UP-BTK), GST-tagged human BTK (389-659aa), sequence (Q06187 389-659): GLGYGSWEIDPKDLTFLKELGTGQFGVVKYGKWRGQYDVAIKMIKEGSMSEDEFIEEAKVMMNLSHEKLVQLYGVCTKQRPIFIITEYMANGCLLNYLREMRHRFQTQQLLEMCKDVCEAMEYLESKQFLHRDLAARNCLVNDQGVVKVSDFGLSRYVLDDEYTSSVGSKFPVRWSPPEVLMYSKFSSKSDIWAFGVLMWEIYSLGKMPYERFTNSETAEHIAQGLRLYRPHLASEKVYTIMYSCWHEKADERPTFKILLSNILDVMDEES

BTK_I_binding pIC50 | SMILES
7.52 | CC(=O)N[C@H]1CCCC[C@H]1NC(=O)c1sc2nccc3c2c1NC(=O)N3c1ccc(Oc2ccccc2)cc1C (single isomer, unassigned) [Example 136, N-((1R,2S)-2-Acetamidocyclohexyl)-5-(*S)-(2-methyl-4-phenoxyphenyl)-4-oxo-4,5-dihydro-3H-1-thia-3,5,8-triazaacenaphthylene-2-carboxamide]
7.49 | CC(=O)N[C@H]1CCC[C@H]1NC(=O)c1sc2nccc3c2c1NC(=O)N3c1ccc(Oc2ccccc2)cc1C (single isomer, unassigned) [Example 138, N-((1R,2S)-2-Acetamidocyclopentyl)-5-(*S)-(2-methyl-4-phenoxyphenyl)-4-oxo-4,5-dihydro-3H-1-thia-3,5,8-triazaacenaphthylene-2-carboxamide]
6.36 | Cc1cc(Oc2ccccc2)ccc1N1C(=O)Nc2c(C(=O)N[C@H]3CCC[C@H]3NC(=O)CN)sc3nccc1c23 (single isomer, unassigned) [Example 154, N-((1S,2R)-2-(2-Aminoacetamido)cyclopentyl)-5-(*S)-(2-methyl-4-phenoxyphenyl)-4-oxo-4,5-dihydro-3H-1-thia-3,5,8-triazaacenaphthylene-2-carboxamide]
6.35 | Cc1cc(Oc2ccccc2)ccc1N1C(=O)Nc2c(C(=O)N[C@H]3CCC[C@H]3NC(=O)CN(C)C)sc3nccc1c23 (single isomer, unassigned) [Example 155, N-((1S,2R)-2-(2-(Dimethylamino)acetamido)cyclopentyl)-5-(*S)-(2-methyl-4-phenoxyphenyl)-4-oxo-4,5-dihydro-3H-1-thia-3,5,8-triazaacenaphthylene-2-carboxamide]
6.26 | CNCC(=O)N[C@@H]1CCC[C@@H]1NC(=O)c1sc2nccc3c2c1NC(=O)N3c1ccc(Oc2ccccc2)cc1C (single isomer, unassigned) [Example 156, 5-(*S)-(2-Methyl-4-phenoxyphenyl)-N-((1S,2R)-2-(2-(methylamino)acetamido)cyclopentyl)-4-oxo-4,5-dihydro-3H-1-thia-3,5,8-triazaacenaphthylene-2-carboxamide]
8.30 | C=CC(=O)N[C@H]1CCC[C@H]1NC(=O)c1sc2nccc3c2c1NC(=O)N3c1ccc(OC(C)C)cc1C (single isomer, unassigned) [Example 165, N-((1R,2S)-2-Acrylamidocyclopentyl)-5-(*R)-(4-isopropoxy-2-methylphenyl)-4-oxo-4,5-dihydro-3H-1-thia-3,5,8-triazaacenaphthylene-2-carboxamide]
8.13 | C=CC(=O)N[C@H]1CCC[C@H]1NC(=O)c1sc2nccc3c2c1NC(=O)N3c1cnc(Oc2ccccc2)nc1C (single isomer, unassigned) [Example 166, N-((1R,2S)-2-Acrylamidocyclopentyl)-5-(*S)-(4-methyl-2-phenoxypyrimidin-5-yl)-4-oxo-4,5-dihydro-3H-1-thia-3,5,8-triazaacenaphthylene-2-carboxamide]
7.02 | Cc1cc(Oc2ccccc2)ncc1N1C(=O)Nc2c(C(=O)N[C@@H]3CCC[C@@H]3N)sc3nccc1c23 (single isomer, unassigned) [Example 170, N-((1R,2S)-2-Aminocyclopentyl)-5-(*S)-(4-methyl-6-phenoxypyridin-3-yl)-4-oxo-4,5-dihydro-3H-1-thia-3,5,8-triazaacenaphthylene-2-carboxamide]
8.19 | C=CC(=O)N[C@H]1CCC[C@H]1NC(=O)c1sc2nccc3c2c1NC(=O)N3c1cnc(Oc2ccccc2)cc1C (single isomer, unassigned) [Example 171, N-((1R,2S)-2-Acrylamidocyclopentyl)-5-(*S)-(4-methyl-6-phenoxypyridin-3-yl)-4-oxo-4,5-dihydro-3H-1-thia-3,5,8-triazaacenaphthylene-2-carboxamide]
8.02 | C=CC(=O)N[C@H]1CCCC[C@H]1NC(=O)c1sc2nccc3c2c1NC(=O)N3c1cnc(Oc2ccccc2)cc1C (single isomer, unassigned) [Example 173, N-((1R,2S)-2-Acrylamidocyclohexyl)-5-(*S)-(4-methyl-6-phenoxypyridin-3-yl)-4-oxo-4,5-dihydro-3H-1-thia-3,5,8-triazaacenaphthylene-2-carboxamide]

Further lines, the compound ahead of its results:

SMILES | BTK_I_binding pIC50
Cc1cc(Oc2ccccc2)ccc1N1C(=O)Nc2c(C(=O)N[C@@H]3CCC[C@H]3N)sc3nccc1c23 (single isomer, unassigned) [Example 120, N-((1R,2R)-2-Aminocyclopentyl)-5-(*S)-(2-methyl-4-phenoxyphenyl)-4-oxo-4,5-dihydro-3H-1-thia-3,5,8-triazaacenaphthylene-2-carboxamide] | 7.54
CNCC(=O)N[C@H]1CCC[C@H]1NC(=O)c1sc2nccc3c2c1NC(=O)N3c1ccc(Oc2ccccc2)cc1C (single isomer, unassigned) [Example 122, 5-(*S)-(2-Methyl-4-phenoxyphenyl)-N-((1R,2S)-2-(2-(methylamino)acetamido)cyclopentyl)-4-oxo-4,5-dihydro-3H-1-thia-3,5,8-triazaacenaphthylene-2-carboxamide] | 7.18
Cc1cc(Oc2ccccc2)ccc1N1C(=O)Nc2c(C(=O)N[C@H]3CCC[C@@H]3NC(=O)CN(C)C)sc3nccc1c23 (single isomer, unassigned) [Example 123, N-((1S,2S)-2-(2-(Dimethylamino)acetamido)cyclopentyl)-5-(*S)-(2-methyl-4-phenoxyphenyl)-4-oxo-4,5-dihydro-3H-1-thia-3,5,8-triazaacenaphthylene-2-carboxamide] | 7.07
CNCC(=O)N[C@H]1CCCC[C@H]1NC(=O)c1sc2nccc3c2c1NC(=O)N3c1ccc(Oc2ccccc2)cc1C (single isomer, unassigned) [Example 125, 5-(*S)-(2-Methyl-4-phenoxyphenyl)-N-((1R,2S)-2-(2-(methylamino)acetamido)cyclohexyl)-4-oxo-4,5-dihydro-3H-1-thia-3,5,8-triazaacenaphthylene-2-carboxamide] | 7.11
Cc1cc(Oc2ccccc2)ccc1N1C(=O)Nc2c(C(=O)N[C@@H]3CCC[C@@H]3NC(=O)CN(C)C)sc3nccc1c23 (single isomer, unassigned) [Example 128, N-((1R,2S)-2-(2-(Dimethylamino)acetamido)cyclopentyl)-5-(*S)-(2-methyl-4-phenoxyphenyl)-4-oxo-4,5-dihydro-3H-1-thia-3,5,8-triazaacenaphthylene-2-carboxamide] | 7.10
Cc1cc(Oc2ccccc2)ccc1N1C(=O)Nc2c(C(=O)N[C@@H]3CCCC[C@@H]3NC(=O)CN)sc3nccc1c23 (single isomer, unassigned) [Example 129, N-((1R,2S)-2-(2-Aminoacetamido)cyclohexyl)-5-(*S)-(2-methyl-4-phenoxyphenyl)-4-oxo-4,5-dihydro-3H-1-thia-3,5,8-triazaacenaphthylene-2-carboxamide] | 7.39
Cc1cc(Oc2ccccc2)ccc1N1C(=O)Nc2c(C(=O)N[C@H]3CCC[C@@H]3NC(=O)CN)sc3nccc1c23 (single isomer, unassigned) [Example 130, N-((1S,2S)-2-(2-Aminoacetamido)cyclopentyl)-5-(*S)-(2-methyl-4-phenoxyphenyl)-4-oxo-4,5-dihydro-3H-1-thia-3,5,8-triazaacenaphthylene-2-carboxamide] | 7.17
Cc1cc(Oc2ccccc2)ccc1N1C(=O)Nc2c(C(=O)N[C@@H]3CCC[C@@H]3NC(=O)CN)sc3nccc1c23 (single isomer, unassigned) [Example 131, N-((1R,2S)-2-(2-Aminoacetamido)cyclopentyl)-5-(*S)-(2-methyl-4-phenoxyphenyl)-4-oxo-4,5-dihydro-3H-1-thia-3,5,8-triazaacenaphthylene-2-carboxamide] | 7.40
Cc1cc(Oc2ccccc2)ccc1N1C(=O)Nc2c(C(=O)N[C@@H]3CCCC[C@@H]3NC(=O)CN(C)C)sc3nccc1c23 (single isomer, unassigned) [Example 132, N-((1R,2S)-2-(2-(Dimethylamino)acetamido)cyclohexyl)-5-(*S)-(2-methyl-4-phenoxyphenyl)-4-oxo-4,5-dihydro-3H-1-thia-3,5,8-triazaacenaphthylene-2-carboxamide] | 7.27
CNCC(=O)N[C@H]1CCC[C@@H]1NC(=O)c1sc2nccc3c2c1NC(=O)N3c1ccc(Oc2ccccc2)cc1C (single isomer, unassigned) [Example 133, 5-(*S)-(2-Methyl-4-phenoxyphenyl)-N-((1S,2S)-2-(2-(methylamino)acetamido)cyclopentyl)-4-oxo-4,5-dihydro-3H-1-thia-3,5,8-triazaacenaphthylene-2-carboxamide] | 7.13
CC(=O)N[C@H]1CCC[C@@H]1NC(=O)c1sc2nccc3c2c1NC(=O)N3c1ccc(Oc2ccccc2)cc1C (single isomer, unassigned) [Example 134, N-((1S,2S)-2-Acetamidocyclopentyl)-5-(*S)-(2-methyl-4-phenoxyphenyl)-4-oxo-4,5-dihydro-3H-1-thia-3,5,8-triazaacenaphthylene-2-carboxamide] | 6.76
Cc1cc(Oc2ccccc2)ccc1N1C(=O)Nc2c(C(=O)N[C@H]3CCC[C@@H]3N)sc3nccc1c23 (single isomer, unassigned) [Example 135, N-((1S,2S)-2-Aminocyclopentyl)-5-(*S)-(2-methyl-4-phenoxyphenyl)-4-oxo-4,5-dihydro-3H-1-thia-3,5,8-triazaacenaphthylene-2-carboxamide] | 6.82

same assay, conditions: read-out: BTK_I_binding pIC50 (converted)

IC50 [nM] | SMILES
> 1000 | CC(=O)N[C@@H]1CCC[C@@H]1NC(=O)c1sc2nccc3c2c1NC(=O)N3c1ccc(Oc2ccccc2)cc1C (single isomer, unassigned) [Example 162, N-((1S,2R)-2-Acetamidocyclopentyl)-5-(*S)-(2-methyl-4-phenoxyphenyl)-4-oxo-4,5-dihydro-3H-1-thia-3,5,8-triazaacenaphthylene-2-carboxamide]
